In brackets after ≈: the same amount, converted by molar mass.
Legend:
MDA-MB-231 = assay: MTT cell viability, MDA-MB-231; type: cell-based; conditions: Homo sapiens, breast cancer, 48 h of drug treatment, average of three experiments
Protocol: (§1) Cell viability studies: Cell viability was assessed using the MTT assay as described before. In brief, all cancer cell lines were seeded at a density of 4×10^4/well in 96 well flat-bottom plates. After 24 h from seeding, cells were treated with the synthesized compounds and left for an incubation period of 48 h. Upon reaching the indicated time point, the media was removed and replaced with 200 μL fresh media containing 0.5 mg/mL of MTT tetrazolium dye (Sigma-Aldrich). Cells were then incubated with MTT solution for 2 h at 37° C. The resultant formazan crystals were dissolved in 200 μl/well of DMSO and absorbance was measured at 570 nm using a microplate reader (Thermo Scientific).

HCT-116 = assay: MTT cell viability, HCT-116; type: cell-based; conditions: Homo sapiens, colon cancer, 48 h of drug treatment, average of three experiments
Text: (§2) Cell culture: In this study five different cancer cell lines were used, human lung carcinoma (A549), human breast adenoma (MCF-7), Cervical carcinoma (Hela), hepatocellular carcinoma (Hep3B), and colorectal adenocarcinoma (HCT-116). These cells were obtained from the European Collection of Cell Cultures (ECACC, UK). Hep3B cells were maintained in Dulbecco's Modified Eagle Medium (DMEM: Sigma-Aldrich), and the four other cell lines were maintained in Roswell Park Memorial Institute medium (RPMI, Sigma-Aldrich, St. Louis, Mo., USA), which was supplemented with 10% fetal bovine serum (FBS, Sigma-Aldrich) and 1% penicillin/streptomycin (Sigma-Aldrich). Cells were incubated all the time at 37° C. in a humidified atmosphere of 5% CO2. Cell viability studies: Cell viability was assessed using the MTT assay as described before. In brief, all cancer cell lines were seeded at a density of 4×10^4/well in 96 well flat-bottom plates. After 24 h from seeding, cells were treated with the synthesized compounds and left for an incubation period of 48 h. Upon reaching the indicated time point, the media was removed and replaced with 200 μL fresh media containing 0.5 mg/mL of MTT tetrazolium dye (Sigma-Aldrich). Cells were then incubated with MTT solution for 2 h at 37° C. The resultant formazan crystals were dissolved in 200 μl/well of DMSO and absorbance was measured at 570 nm using a microplate reader (Thermo Scientific).

Hela cells = assay: Western blot, autophagy- and iron metabolism-related proteins, Hela; type: cell-based, human
Protocol: Western Blotting (autophagy- and iron metabolism-related proteins): Cells were grown in DMEM supplemented with 10% FBS and 1×PEST (Penicillin and streptomycin antibiotics) at 37° C. in incubator having humidified atmosphere with 5% CO2. The media were removed and cells were washed twice with 1× cold PBS. Cells lysis was performed with RIPA lysis buffer containing (150 mM sodium chloride, 1.0% NP-40, 0.1% SDS, 50 mM Tris pH 8.0, 0.5% sodium deoxycholate supplemented with protease inhibitors cocktail). Cells were kept on icebox during the lysis process. Cold lysis buffer was added to each well directly and then cells were scraped and collected in 1.5 ml Eppendorf tube. Cell lysis was kept on icebox for 20 minutes and then centrifuged at 4° C. for 10 minutes. The supernatant was collected and the pellet was discarded. After, protein quantification, samples were boiled in 5× loading buffer at 95° C. for 5 minutes. After completion of the gel running and transfer process, the membrane was stained with ponceau solution. After that, the membrane was washed with 1×TBST and then blocked in 5% non-fat dry milk for 1 hr at room temperature. The membrane was washed 3 times with 1×TBST and then incubated with indicated primary antibodies at 4° C. overnight. Primary antibodies were removed; the membrane was washed 3 times with 1×TBST and then incubated with secondary antibodies for 2 h at room temperature. Secondary antibodies were diluted in 5% non-fat dry milk in 1× TB ST. After removal of the secondary antibody, the membrane was washed 3 times with 1×TBST. The membrane was incubated in ECL solution and the signal was developed using Gel Doc system from Biorad.

SKBR3 = assay: MTT cell viability, SKBR3; type: cell-based; conditions: Homo sapiens, SK-BR-3; breast cancer; 48 h of drug treatment; average of three experiments
Protocol: as §1

MRSA-ATCC33591 = assay: MIC broth microdilution, MRSA ATCC33591; type: cell-based, Staphylococcus aureus; conditions: Staphylococcus aureus; overnight incubation, Mueller-Hinton broth; read-out: MIC MRSA-ATCC33591
Protocol: (§3) Antibacterial activity: The compounds were tested for the minimum inhibitory concentrations (MIC), which is the lowest concentration of a chemical required to inhibit visible microbial growth following overnight incubation. MIC values were determined using broth microdilution method according to the Clinical and Laboratory Standards Institute guidelines (CLSI, 2015, M07-A10). Mueller-Hinton broth was used as a culture medium in all the experiments. Exponentially growing bacterial cells were prepared in Mueller-Hinton broth at a concentration of approximately 5×10^5 CFU/mL. Two-fold serial dilutions of the test compound (8 concentrations ranged between 100-0.78 μg/mL) were tested. […] In each experiment, solvent (DMSO) was used as a negative control, un-treated control (composing of bacteria in Mueller-Hinton broth) was used as a growth control, blank (culture media alone) was used as sterility control. The 96-well microplate with the test compounds was incubated overnight at 37° C. Turbidity in wells indicated bacterial growth.
(§4) The compounds were tested on six MDR Gram-positive bacteria including three clinical isolates of methicillin-resistant Staphylococcus aureus (MRSA-1, MRSA-2 and MRSA-3) and three reference MRSA strains (ATCC33591, ATCC33592 and ATCC700699). They were also tested on three MDR Gram-negative bacteria including New Delhi metallo-beta-lactamase (NDM-1) positive, carbapenem-resistant E. coli (ATCC BAA2469), extended-spectrum beta-lactamase (ESBL) producing, colistin-resistant E. coli (CDC-AR-0346) and carbapenem-resistant Acinetobacter baumannii (ATCC BAA1605), in addition to two non-MDR bacteria from the same species, namely E. coli (ATCC 25922) Acinetobacter baumannii (ATCC 19606).

HELA = assay: MTT cell viability, HELA; type: cell-based; conditions: Homo sapiens, cervical cancer, 48 h of drug treatment, average of three experiments
Text: as §2

A549 = assay: MTT cell viability, A549; type: cell-based; conditions: Homo sapiens, lung cancer, 48 h of drug treatment, average of three experiments
Text: as §2

[1] = tested on: MRSA-1 (clinical isolate); assay: MIC broth microdilution, MRSA-1; type: cell-based, Staphylococcus aureus; conditions: Staphylococcus aureus, MRSA; overnight incubation, Mueller-Hinton broth; read-out: MIC MRSA-1 (clinical isolate)
Protocol: as §3, §4

JIMT1 = assay: MTT cell viability, JIMT1; type: cell-based; conditions: Homo sapiens, JIMT-1; breast cancer; 48 h of drug treatment; average of three experiments
Protocol: as §1

[2] = tested on: normal epithelial cells (HMEC); assay: Cell viability, normal epithelial cells; type: cell-based; conditions: Homo sapiens, 48 h of drug treatment, average of three experiments
Protocol: as §1

MRSA-ATCC700699 (VISA) = assay: MIC broth microdilution, MRSA ATCC700699 (VISA); type: cell-based, Staphylococcus aureus; conditions: for MIC: Staphylococcus aureus, strain intermediately resistant to vancomycin, overnight incubation, read-out: MIC MRSA-ATCC700699 (VISA)
Protocol: as §3, §4

MDA-MB-468 = assay: MTT cell viability, MDA-MB-468; type: cell-based; conditions: Homo sapiens, breast cancer, 48 h of drug treatment, average of three experiments
Protocol: as §1

SKOV3 = assay: MTT cell viability, SKOV3; type: cell-based; conditions: Homo sapiens, SK-OV-3; 48 h of drug treatment; average of three experiments
Protocol: as §1

MCF-7 = assay: MTT cell viability, MCF-7; type: cell-based; conditions: Homo sapiens, MCF7; breast cancer; 48 h of drug treatment; average of three experiments
Text: as §2

MRSA-ATCC33592 = assay: MIC broth microdilution, MRSA ATCC33592; type: cell-based, Staphylococcus aureus; conditions: Staphylococcus aureus; overnight incubation, Mueller-Hinton broth; read-out: MIC MRSA-ATCC33592
Protocol: as §3, §4

[3] = tested on: MRSA-2 (clinical isolate); assay: MIC broth microdilution, MRSA-2; type: cell-based, Staphylococcus aureus; conditions: Staphylococcus aureus, MRSA; overnight incubation, Mueller-Hinton broth; read-out: MIC MRSA-2 (clinical isolate)
Protocol: as §3, §4

HEP3B = assay: MTT cell viability, HEP3B; type: cell-based; conditions: Homo sapiens, liver cancer, 48 h of drug treatment, average of three experiments
Text: as §2

AGS = assay: MTT cell viability, AGS; type: cell-based; conditions: Homo sapiens, stomach cancer, 48 h of drug treatment, average of three experiments
Protocol: as §1

[4] = tested on: MRSA-3 (clinical isolate); assay: MIC broth microdilution, MRSA-3; type: cell-based, Staphylococcus aureus; conditions: Staphylococcus aureus, MRSA; overnight incubation, Mueller-Hinton broth; read-out: MIC MRSA-3 (clinical isolate)
Protocol: as §3, §4

6 MRSA strains = assay: MIC, panel of 6 MRSA strains; type: cell-based; conditions: Staphylococcus aureus, across the panel of tested Gram-positive strains, read-out: MIC against all the 6 MRSA strains
Protocol: as §3, §4

[5] = tested on: E. coli CDC-AR-0346 (ESBL, colistin resistant); assay: MIC broth microdilution, E. coli CDC-AR-0346; type: cell-based, Escherichia coli; conditions: for MIC: Escherichia coli, MDR, overnight incubation
Protocol: as §3, §4

[6] = tested on: E. coli ATCC BAA2469 (NDM-1 carbapenem-resistant); assay: MIC broth microdilution, E. coli ATCC BAA2469; type: cell-based, Escherichia coli; conditions: overnight incubation; for MIC: Escherichia coli, ATCCBAA2469, MDR; for MIC E. coli ATCC BAA2469 (NDM-1 carbapenem-resistant): MDR
Protocol: as §3, §4

[7] = tested on: Acinetobacter baumannii ATCC 19606; assay: MIC broth microdilution, A. baumannii ATCC 19606; type: cell-based; conditions: Acinetobacter baumannii, ATCC19606; not MDR; overnight incubation
Protocol: as §3, §4

[8] = tested on: Acinetobacter baumannii ATCC BAA1605 (carbapenem-resistant); assay: MIC broth microdilution, A. baumannii ATCC BAA1605; type: cell-based; conditions: for MIC: Acinetobacter baumannii, ATCCBAA1605, MDR, overnight incubation
Protocol: as §3, §4

E. coli ATCC25922 = assay: MIC broth microdilution, E. coli ATCC25922; type: cell-based, Escherichia coli; conditions: Escherichia coli, ATCC25922; not MDR; overnight incubation
Protocol: as §3, §4

Compound	IC50 (HCT-116)	MIC (MRSA-ATCC33591)	IC50 (HELA)	IC50 (A549)	MIC [1]	IC50 [2]	MIC (MRSA-ATCC700699 (VISA))	IC50 (MCF-7)	MIC (MRSA-ATCC33592)	MIC [3]	IC50 (HEP3B)	MIC [4]	MIC [5]	MIC [6]	MIC E. coli ATCC BAA2469 (NDM-1 carbapenem-resistant) [6]	MIC [7]	MIC [8]	MIC (E. coli ATCC25922)	other results
O=[N+]([O-])c1ccc(N/N=C2\C=C[C@@]3(CC2)CC[C@@H]2NCCc4c2n3c2ccccc42)cc1 [Compound 1d]	2.49 ± 0.02 µM	3.12 µg/mL (≈ 7.31 µM)	3.14 ± 0.04 µM	5.22 ± 0.03 µM	3.12 µg/mL (≈ 7.31 µM)	42.04 ± 0.08 µM	3.12 µg/mL (≈ 7.31 µM)	3.09 ± 0.04 µM	3.12 µg/mL (≈ 7.31 µM)	3.12 µg/mL (≈ 7.31 µM)	2.32 ± 0.16 µM	3.12 µg/mL (≈ 7.31 µM)	–	–	–	–	–	–	IC50 (MDA-MB-231): 4.22 ± 0.1 µM; Expression and metabolism of autophagy marker LC3B1/II (Hela cells): upregulate; Expression of DNA damage marker pH2AX (Hela cells): induce; IC50 (SKBR3): 3.93 ± 0.16 µM; IC50 (JIMT1): 4 ± 0.1 µM; IC50 (MDA-MB-468): 3.06 ± 0.17 µM; IC50 (SKOV3): 6.52 ± 0.2 µM; IC50 (AGS): 5.37 ± 0.17 µM
Fc1ccc2c3c4n(c2c1)[C@@]1(C=C/C(=N\Nc2ccc(C(F)(F)F)cc2)CC1)CC[C@@H]4NCC3 [Compound 1g]	3.02 ± 1.2 µM	1.56 µg/mL (≈ 3.33 µM)	4.625 ± 0.04 µM	7.44 ± 0.04 µM	1.56 µg/mL (≈ 3.33 µM)	–	1.56 µg/mL (≈ 3.33 µM)	5.34 ± 1.8 µM	1.56 µg/mL (≈ 3.33 µM)	1.56 µg/mL (≈ 3.33 µM)	3.597 ± 0.03 µM	1.56 µg/mL (≈ 3.33 µM)	12.5 µg/mL (≈ 26.7 µM)	6.25 to 12.5 µg/mL (≈ 13.3 to 26.7 µM)	6.25 µg/mL (≈ 13.3 µM)	6.25 µg/mL (≈ 13.3 µM)	6.25 µg/mL (≈ 13.3 µM)	6.25 µg/mL (≈ 13.3 µM)	MIC (6 MRSA strains): 1.56 µg/mL (≈ 3.33 µM); MIC fold higher than that of colistin ([5]; E. coli CDC-AR-0346, colistin 6.25 μg/mL): 2 fold; MIC times less than the MIC of vancomycin (MRSA-ATCC700699 (VISA); VISA strain ATCC 700699, vancomycin 8 μg/mL): ~5 times; MIC fold below that of meropenem ([8]; Acinetobacter baumannii ATCC BAA1605, meropenem 12.5 μg/mL): 2 fold
Oc1ccc2c(c1)c1c3n2[C@@]2(C=C/C(=N\Nc4ccc(C(F)(F)F)cc4)CC2)CC[C@@H]3NCC1 [Compound 1i]	5.177 ± 0.02 µM	3.12 µg/mL (≈ 6.7 µM)	4.08 ± 0.12 µM	8.607 ± 0.02 µM	1.56 µg/mL (≈ 3.34 µM)	12.7 ± 0.05 µM	1.56 µg/mL (≈ 3.34 µM)	5.61 ± 0.08 µM	3.12 µg/mL (≈ 6.7 µM)	3.12 µg/mL (≈ 6.7 µM)	5.132 ± 0.04 µM	3.12 µg/mL (≈ 6.7 µM)	25 µg/mL (≈ 53.6 µM)	6.25 to 12.5 µg/mL (≈ 13.4 to 26.8 µM)	12.5 µg/mL (≈ 26.8 µM)	6.25 µg/mL (≈ 13.4 µM)	12.5 µg/mL (≈ 26.8 µM)	12.5 µg/mL (≈ 26.8 µM)	–
COc1ccc2c3c4n(c2c1)[C@@]1(C=C/C(=N\Nc2ccc(C(F)(F)F)cc2)CC1)CC[C@@H]4NCC3 [Compound 1j]	2.3 ± 0.04 µM	3.12 µg/mL (≈ 6.5 µM)	4.601 ± 0.03 µM	5.61 ± 0.12 µM	1.56 µg/mL (≈ 3.25 µM)	10.77 ± 0.05 µM	3.12 µg/mL (≈ 6.5 µM)	3 ± 2.4 µM	3.12 µg/mL (≈ 6.5 µM)	3.12 µg/mL (≈ 6.5 µM)	2.88 ± 0.14 µM	3.12 µg/mL (≈ 6.5 µM)	–	–	–	–	–	–	–

From patent publication US11286258B2, “Nature-inspired anticancer and antibacterial motifs and pharmaceutical composition thereof” (University of Sharjah, priority 2020, dated 2022)
